Read-outs that look alike come from different tables or passages of the source.
Columns and labels:
human orexin-2 receptor = human orexin-2 receptor (Homo sapiens (Human), UniProt O43614); experiment: Intracellular calcium measurement (FLIPR), CHO cells expressing human orexin-2 receptor, 3 nM orexin-A; assay type: cell-based; settings: read-out: IC50 OX2
Experimental: (§1) In Vitro Assay: Intracellular Calcium Measurements:
(§2) Chinese hamster ovary (CHO) cells expressing the human orexin-1 receptor and the human orexin-2 receptor, respectively, are grown in culture medium (Ham F-12 with L-Glutamine) containing 300 μg/mL G418, 100 U/mL penicillin, 100 μg/mL streptomycin and 10% heat inactivated fetal calf serum (FCS). The cells are seeded at 20,000 cells/well into 384-well black clear bottom sterile plates (Greiner). The seeded plates are incubated overnight at 37° C. in 5% CO2.
(§3) Human orexin-A as an agonist is prepared as 1 mM stock solution in MeOH: water (1:1), diluted in HBSS containing 0.1% bovine serum albumin (BSA), NaHCO3: 0.375 g/L and 20 mM HEPES for use in the assay at a final concentration of 3 nM.
(§4) Antagonists are prepared as 10 mM stock solution in DMSO, then diluted in 384-well plates using DMSO followed by a transfer of the dilutions into in HBSS containing 0.1% bovine serum albumin (BSA), NaHCO3: 0.375 g/L and 20 mM HEPES. On the day of the assay, 50 μL of staining buffer (HBSS containing 1% FCS, 20 mM HEPES, NaHCO3: 0.375 g/L, 5 mM probenecid (Sigma) and 3 μM of the fluorescent calcium indicator fluo-4 AM (1 mM stock solution in DMSO, containing 10% pluronic) is added to each well. The 384-well cell-plates are incubated for 50 min at 37° C. in 5% CO2 followed by equilibration at rt for 30 min before measurement.
(§5) Within the Fluorescent Imaging Plate Reader (FLIPR Tetra, Molecular Devices), antagonists are added to the plate in a volume of 10 μL/well, incubated for 120 min and finally 10 μL/well of agonist is added. Fluorescence is measured for each well at 1 second intervals, and the height of each fluorescence peak is compared to the height of the fluorescence peak induced by 3 nM orexin-A with vehicle in place of antagonist. […] Optimized conditions were achieved by adjustment of pipetting speed and cell splitting regime. The calculated IC50 values may fluctuate depending on the daily cellular assay performance. Fluctuations of this kind are known to those skilled in the art.

orexin-1 = orexin-1 (Homo sapiens (Human), UniProt O43613); experiment: Intracellular calcium measurement (FLIPR), CHO cells expressing human orexin-1 receptor, 3 nM orexin-A; assay type: cell-based; settings: read-out: IC50 OX1
Sequence of orexin-1 (O43613 whole entry): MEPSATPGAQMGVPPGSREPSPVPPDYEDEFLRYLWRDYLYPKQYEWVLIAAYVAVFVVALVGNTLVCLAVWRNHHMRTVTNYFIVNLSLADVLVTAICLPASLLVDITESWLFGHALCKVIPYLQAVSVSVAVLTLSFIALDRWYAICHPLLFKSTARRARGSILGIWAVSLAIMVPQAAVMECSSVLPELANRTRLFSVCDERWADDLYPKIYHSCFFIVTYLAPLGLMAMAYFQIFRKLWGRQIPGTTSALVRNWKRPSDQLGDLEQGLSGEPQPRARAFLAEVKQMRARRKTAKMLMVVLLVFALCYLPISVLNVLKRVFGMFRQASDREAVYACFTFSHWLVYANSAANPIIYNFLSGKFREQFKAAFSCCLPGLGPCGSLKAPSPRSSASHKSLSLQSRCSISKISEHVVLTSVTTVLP
Experimental: as §1, §2, §3, §4, §5

[1] = CHO cells expressing human orexin-2 receptor, FLIPR, 3 nM orexin-A, geometric mean if determined several times
[2] = CHO cells expressing human orexin-1 receptor, FLIPR, 3 nM orexin-A, geometric mean if determined several times

Sequence of human orexin-2 receptor (O43614 whole entry): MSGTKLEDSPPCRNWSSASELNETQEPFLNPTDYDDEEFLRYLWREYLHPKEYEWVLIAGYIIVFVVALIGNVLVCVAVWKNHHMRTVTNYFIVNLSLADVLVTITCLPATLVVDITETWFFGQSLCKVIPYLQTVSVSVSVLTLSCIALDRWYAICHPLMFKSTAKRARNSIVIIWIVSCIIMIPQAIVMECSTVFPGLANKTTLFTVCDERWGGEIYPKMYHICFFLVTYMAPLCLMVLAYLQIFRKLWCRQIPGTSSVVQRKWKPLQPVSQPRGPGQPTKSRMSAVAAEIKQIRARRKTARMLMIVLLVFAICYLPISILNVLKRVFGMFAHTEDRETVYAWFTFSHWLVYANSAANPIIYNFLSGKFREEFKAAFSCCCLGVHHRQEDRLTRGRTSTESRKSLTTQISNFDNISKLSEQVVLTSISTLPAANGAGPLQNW

Row | Molecule | IC50 (human orexin-2 receptor; [1]) [µM] | IC50 (orexin-1; [2]) [µM] | IC50 (orexin-1) [µM] | IC50 (human orexin-2 receptor) [µM]
1 | Cc1c(Cl)cccc1-c1noc([C@@H]2CCCN2C(=O)c2cccc(F)c2-c2ccn[nH]2)n1 [compound 117] | 0.005 |  | 0.211 | 
2 | COc1ccc(-n2cccn2)c(C(=O)N2CCC[C@H]2c2nc(-c3cccc(Cl)c3C)no2)c1 [compound 106] | 0.028 | 0.327 |  | 
3 | Cc1ccc(-n2nccn2)c(C(=O)N2CCC[C@H]2c2cnc(-c3cccc(Cl)c3C)[nH]2)c1 [compound 521] | 0.681 | 2.51 |  | 
4 | (4,5-Dimethyl-2-[1,2,3]triazol-2-yl-phenyl)-{(S)-2-[5-(2-trifluoromethoxy-phenyl)-[1,2,4]oxadiazol-3-yl]-pyrrolidin-1-yl}-methanone [Example 304] | 0.003 | 0.004 |  | 
5 | Cc1c(Cl)cccc1-c1noc([C@@H]2CCCN2C(=O)c2ncsc2-c2cccc(Cl)c2)n1 [compound 94] | 0.201 | 0.237 |  | 
6 | O=C(c1cc(Cl)ccc1-n1nccn1)N1CCC[C@H]1c1nnc(-c2ccccc2OC(F)(F)F)[nH]1 [compound 504] |  | 0.104 |  | 0.005
7 | COc1cc(C(=O)N2CCC[C@H]2c2nc(-c3ccccc3OC(F)(F)F)no2)c(-n2nccn2)cc1Cl [compound 281] | 0.017 | 0.042 |  | 
8 | Cc1cc(-n2nccn2)c(C(=O)N2CCC[C@H]2c2noc(-c3ccccc3OC(F)(F)F)n2)cc1Cl [compound 365] | 0.006 | 0.013 |  | 
9 | COc1cc(C(=O)N2CCC[C@H]2c2noc(-c3cccc(Cl)c3OC)n2)c(-n2nccn2)cc1C [compound 348] | 0.001 | 0.01 |  | 
10 | COc1cc(C(=O)N2CCC[C@H]2c2noc(-c3cccc(OC)c3C)n2)c(-n2nccn2)cc1Cl [compound 355] | 0.008 | 0.188 |  | 
11 | COc1cccc(-c2nccnc2C(=O)N2CCC[C@H]2c2nc(-c3cccc(Cl)c3C)no2)c1 [compound 128] | 0.181 |  | 0.2 | 
12 | [3-(2-Chloro-phenyl)-5-methyl-isoxazol-4-yl]-{(S)-2-[3-(2-trifluoromethoxy-phenyl)-[1,2,4]oxadiazol-5-yl]-pyrrolidin-1-yl}-methanone [Reference compound 10, reference compound] | 0.15 | 1.04 |  | 
13 | Cc1ccc(-c2ncccn2)c(C(=O)N2CCC[C@H]2c2nc(-c3cccc(Cl)c3C)no2)c1 [compound 274] | 0.029 | 0.171 |  | 
14 | Cc1ccc(-n2nccn2)c(C(=O)N2CCC[C@H]2c2nc(-c3cccnc3Cl)no2)c1 [compound 28] | 0.033 |  | 2.61 | 

Second part, led by results:

Row | IC50 (human orexin-2 receptor; [1]) [µM] | IC50 (orexin-1; [2]) [µM] | Molecule | IC50 (orexin-1) [µM] | IC50 (human orexin-2 receptor) [µM]
15 | 0.001 | 0.013 | CCOc1ccccc1-c1nc([C@@H]2CCCN2C(=O)c2cc(OC)c(C)cc2-n2nccn2)no1 [compound 309, {(S)-2-[5-(2-Ethoxy-phenyl)-[1,2,4]oxadiazol-3-yl]-pyrrolidin-1-yl}-(5-methoxy-4-methyl-2-[1,2,3]triazol-2-yl-phenyl)-methanone] |  | 
16 | 0.017 | 0.06 | O=C(c1ccccc1-c1ccccc1)N1CCC[C@H]1c1nc(-c2ccccc2OC(F)(F)F)no1 [compound 135, Biphenyl-2-yl-{(S)-2-[3-(2-trifluoromethoxy-phenyl)-[1,2,4]oxadiazol-5-yl]-pyrrolidin-1-yl}-methanone] |  | 
17 | 0.045 | 0.1 | Cc1cccc(-c2ocnc2C(=O)N2CCC[C@H]2c2nc(-c3ccccc3OC(F)(F)F)no2)c1 [compound 140, (5-m-Tolyl-oxazol-4-yl)-{(S)-2-[3-(2-trifluoromethoxy-phenyl)-[1,2,4]oxadiazol-5-yl]-pyrrolidin-1-yl}-methanone] |  | 
18 | 0.012 | 0.014 | Cc1ccc(-c2ncco2)c(C(=O)N2CCC[C@H]2c2nc(-c3ccccc3OC(F)(F)F)no2)c1 [compound 175, (5-Methyl-2-oxazol-2-yl-phenyl)-{(S)-2-[3-(2-trifluoromethoxy-phenyl)-[1,2,4]oxadiazol-5-yl]-pyrrolidin-1-yl}-methanone] |  | 
19 | 0.209 | 0.704 | Cc1ccc(-n2nccn2)c(C(=O)N2CCC[C@H]2c2nnc(-c3ccccc3)[nH]2)c1 [Example 463, (5-Methyl-2-[1,2,3]triazol-2-yl-phenyl)-[(S)-2-(5-phenyl-4H-[1,2,4]triazol-3-yl)-pyrrolidin-1-yl]-methanone] |  | 
20 | 1.23 | 1.3 | Cc1cccc(-c2scnc2C(=O)N2CCC[C@H]2c2nnc(-c3ccccc3OC(F)(F)F)[nH]2)c1 [compound 485, (5-m-Tolyl-thiazol-4-yl)-{(S)-2-[5-(2-trifluoromethoxy-phenyl)-4H-[1,2,4]triazol-3-yl]-pyrrolidin-1-yl}-methanone] |  | 
21 | 0.003 | 0.045 | COc1c(F)cccc1-c1nc([C@@H]2CCCN2C(=O)c2cc(C)ccc2-n2nccn2)no1 [compound 336, {(S)-2-[5-(3-Fluoro-2-methoxy-phenyl)-[1,2,4]oxadiazol-3-yl]-pyrrolidin-1-yl}-(5-methyl-2-[1,2,3]triazol-2-yl-phenyl)-methanone] |  | 
22 | 0.013 | 0.07 | Cc1ccc(-n2nccn2)c(C(=O)N2CCC[C@H]2c2nc(-c3cccc(C)c3C)no2)c1 [compound 13, {(S)-2-[3-(2,3-Dimethyl-phenyl)-[1,2,4]oxadiazol-5-yl]-pyrrolidin-1-yl}-(5-methyl-2-[1,2,3]triazol-2-yl-phenyl)-methanone] |  | 
23 | 0.01 | 0.062 | COc1c(Cl)cccc1-c1nnc([C@@H]2CCCN2C(=O)c2ccc(C)cc2-n2nccn2)[nH]1 [compound 489, {(S)-2-[5-(3-Chloro-2-methoxy-phenyl)-4H-[1,2,4]triazol-3-yl]-pyrrolidin-1-yl}-(4-methyl-2-[1,2,3]triazol-2-yl-phenyl)-methanone] |  | 
24 | 0.259 | 2.91 | Cc1ccc(-n2nccn2)c(C(=O)N2CCC[C@H]2c2nc(-c3ccccc3O)no2)c1 [compound 31, {(S)-2-[3-(2-Hydroxy-phenyl)-[1,2,4]oxadiazol-5-yl]-pyrrolidin-1-yl}-(5-methyl-2-[1,2,3]triazol-2-yl-phenyl)-methanone] |  | 
25 | 0.004 | 0.03 | COc1ccc(C)c(-c2nc([C@@H]3CCCN3C(=O)c3cc(C)c(C)cc3-n3nccn3)no2)c1 [compound 383, (4,5-Dimethyl-2-[1,2,3]triazol-2-yl-phenyl)-{(S)-2-[5-(5-methoxy-2-methyl-phenyl)-[1,2,4]oxadiazol-3-yl]-pyrrolidin-1-yl}-methanone] |  | 
26 | 0.145 | 1.11 | CCOc1ccccc1-c1noc([C@@H]2CCCN2C(=O)c2cccc(C)c2-n2nccn2)n1 [compound 262, {(S)-2-[3-(2-Ethoxy-phenyl)-[1,2,4]oxadiazol-5-yl]-pyrrolidin-1-yl}-(3-methyl-2-[1,2,3]triazol-2-yl-phenyl)-methanone] |  | 
27 | 0.157 | 0.265 | COc1cccc(-c2nc([C@@H]3CCCN3C(=O)c3ccc(C)cc3-n3nccn3)no2)c1C [compound 364, {(S)-2-[5-(3-Methoxy-2-methyl-phenyl)-[1,2,4]oxadiazol-3-yl]-pyrrolidin-1-yl}-(4-methyl-2-[1,2,3]triazol-2-yl-phenyl)-methanone] |  | 
28 | 0.089 | 0.204 | Cc1ccc(-n2nccn2)c(C(=O)N2CCC[C@H]2c2noc(-c3n[nH]c4ccccc34)n2)c1 [compound 312, {(S)-2-[5-(1H-Indazol-3-yl)-[1,2,4]oxadiazol-3-yl]-pyrrolidin-1-yl}-(5-methyl-2-[1,2,3]triazol-2-yl-phenyl)-methanone] |  | 
29 | 0.009 | 0.008 | CCOc1ncccc1-c1nnc([C@@H]2CCCN2C(=O)c2cc(C)c(C)cc2-n2nccn2)[nH]1 [compound 480, (4,5-Dimethyl-2-[1,2,3]triazol-2-yl-phenyl)-{(S)-2-[5-(2-ethoxy-pyridin-3-yl)-4H-[1,2,4]triazol-3-yl]-pyrrolidin-1-yl}-methanone] |  | 
30 | 0.015 | 0.135 | COc1c(F)cccc1-c1noc([C@@H]2CCCN2C(=O)c2cc(C)cc(C)c2-n2nccn2)n1 [compound 192, (3,5-Dimethyl-2-[1,2,3]triazol-2-yl-phenyl)-{(S)-2-[3-(3-fluoro-2-methoxy-phenyl)-[1,2,4]oxadiazol-5-yl]-pyrrolidin-1-yl}-methanone] |  | 
31 | 0.01 | 0.053 | COc1c(F)cccc1-c1noc([C@@H]2CCCN2C(=O)c2cccc(F)c2-c2ccn[nH]2)n1 [compound 202, {(S)-2-[3-(3-Fluoro-2-methoxy-phenyl)-[1,2,4]oxadiazol-5-yl]-pyrrolidin-1-yl}-[3-fluoro-2-(2H-pyrazol-3-yl)-phenyl]-methanone] |  | 

Source: patent publication US9493446B2, “Orexin receptor antagonists which are [ortho bi-(hetero-)aryl]-[2-(meta bi-(hetero-)aryl)-pyrrolidin-1-yl]-methanone derivatives” (Actelion Pharmaceuticals Ltd, priority 2012, dated 2016)
